Among the data in patent US9120749B2, “Quinoline derivatives and MELK inhibitors containing the same” (ONCOTHERAPY SCIENCE, INC., priority 2010, dated 2015) are IC50 values, retold here.

One test has as its target MELK (Homo sapiens, UniProt Q14680). The experiment in a line: Kinase assay: MELK activity, phosphorylation of FITC-labeled histone H3 peptide measured by IMAP fluorescence polarization. The test is classed as biochemical. The note with it: 50 micro-M ATP, FITC-labeled histone H3 peptide substrate, IMAP fluorescence polarization; read-out: IC50 (μM) (kinase assay). The method in brief:
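A FITC-labelled histone H3 peptide served as substrate, with compounds serially diluted to 1% DMSO final. Reactions were stopped with three volumes of IMAP progressive binding solution. After 0.5 h at room temperature, fluorescence polarization was read.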
A general note: In fluorescence polarisation assays a small probe gives low polarisation when free and higher when bound to something large.

The test system of another test is A549 cells. Description: Cell-based assay: anti-proliferative activity, Cell Counting Kit-8, 72 hours (A549). The note with it: Homo sapiens, A549, 72 h, MELK-expressing, Cell Counting Kit-8 at 72 hours. The method in brief:
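A549 cells were seeded in 96-well plates and exposed to candidate inhibitors for 72 hours. Cell growth was then measured with Cell Counting Kit-8, and IC50 values were calculated from the resulting growth data.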
On the technique in general: Formazan colour is commonly taken as a measure of viable cells.

The subject of another test is HT-1197 cells. Description: Cell-based assay: anti-proliferative activity, Cell Counting Kit-8, 72 hours (HT-1197, negative control without MELK expression). As to conditions: Homo sapiens, HT1197, 72 h, HT1197 cells, no MELK expression (negative control); Cell Counting Kit-8 at 72 hours. The method in brief: (§1)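 T47D, A549 and BT-549 cells, with MELK-negative HT-1197 as control (MELK status checked by western blot), seeded at 2,000–3,000 cells/well. Growth measured by CCK-8 72 hours after inhibitor exposure; IC50 values calculated.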

Another test has as its system T47D cells. Description: Cell-based assay: anti-proliferative activity, Cell Counting Kit-8, 72 hours (T47D). The note with it: Homo sapiens, T47D, 72 h, MELK-expressing, Cell Counting Kit-8 at 72 hours. The method in brief:
as §1

In another test the test system is BT-549 cells. Description: Cell-based assay: anti-proliferative activity, Cell Counting Kit-8, 72 hours (BT-549). As to conditions: Homo sapiens, BT-549, 72 h, BT549 cells, MELK-expressing; Cell Counting Kit-8 at 72 hours. The procedure: To evaluate the expression status of MELK in several cell lines, western blot analysis was performed using crude cell lysate collected from those cells. Anti-MELK antibody (clone 31, BD Biosciences) was used to visualize the expression.
Active candidate inhibitors against MELK were evaluated for their target-specific cytotoxicity using T47D, A549, BT-549, and HT-1197 cells was used for negative control. 100 micro-L of cell suspension was seeded onto 96-well microtiter plate (ViewPlate-96FTC, PerkinElmer). The initial cell concentration of T47D, A549, BT-549, and HT-1197 were 3,000 cells/well, 2,000 cells/well and 2,500 cells/well, respectively. Cellular growth was determined using Cell Counting Kit-8 (DOJINDO) at 72 hours after the exposure of the candidate inhibitors. […] Accurate IC50 values were calculated as described previously.

MELK, sequence (Q14680 whole entry, looked up): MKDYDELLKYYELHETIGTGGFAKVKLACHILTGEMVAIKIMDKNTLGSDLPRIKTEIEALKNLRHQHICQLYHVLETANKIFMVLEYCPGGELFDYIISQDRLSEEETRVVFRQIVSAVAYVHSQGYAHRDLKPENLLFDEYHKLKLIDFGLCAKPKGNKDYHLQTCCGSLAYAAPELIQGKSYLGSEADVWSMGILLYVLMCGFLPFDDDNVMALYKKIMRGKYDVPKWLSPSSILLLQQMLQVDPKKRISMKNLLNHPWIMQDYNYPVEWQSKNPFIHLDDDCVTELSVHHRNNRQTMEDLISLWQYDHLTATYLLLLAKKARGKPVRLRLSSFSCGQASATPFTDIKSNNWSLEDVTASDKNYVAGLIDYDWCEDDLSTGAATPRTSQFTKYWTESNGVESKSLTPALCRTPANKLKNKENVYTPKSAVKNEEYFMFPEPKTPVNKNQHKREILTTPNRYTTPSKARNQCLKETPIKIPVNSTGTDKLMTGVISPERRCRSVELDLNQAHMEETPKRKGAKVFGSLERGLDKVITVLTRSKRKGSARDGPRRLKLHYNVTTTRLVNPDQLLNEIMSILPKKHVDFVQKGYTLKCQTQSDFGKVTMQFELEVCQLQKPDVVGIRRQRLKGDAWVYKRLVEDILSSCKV

By IC50 is commonly meant the concentration that inhibits the measured activity by half. Take `CN1CCC(CNc2c(C(=O)C3CC3)cnc3ccc(-c4cc(F)c(O)c(Cl)c4)cc23)CC1` [Example 270, {6-(3-Chloro-5-fluoro-4-hydroxyphenyl)-4-[(1-methylpiperidin-4-yl)methylamino]quinolin-3-yl}(cyclopropyl)methanone]: the IC50 amounted to 0.021 µM on MELK; 0.69 µM in the test on A549 cells; 2.9 µM in the test with HT-1197 cells; 0.51 µM in the test on T47D cells; 1.1 µM with BT-549 cells.
For `N[C@H]1CC[C@H](Nc2c(C(=O)C3CC3)cnc3ccc(-c4cc(Cl)c(O)cc4Cl)cc23)CC1` [Example 160, {4-[trans-4-Aminocyclohexylamino]-6-(2,5-dichloro-4-hydroxyphenyl)quinolin-3-yl}(cyclopropyl)methanone], in that order: 0.072 µM, 0.68 µM, 1.2 µM, 0.28 µM and 0.39 µM.
Turning to `N[C@H]1CC[C@H](Nc2c(C(=O)C3CC3)cnc3ccc(-c4cc(F)c(O)c(Cl)c4)cc23)CC1` [Example 179, {4-[trans-4-Aminocyclohexylamino]-6-(3-chloro-5-fluoro-4-hydroxyphenyl)quinolin-3-yl}(cyclopropyl)methanone], the IC50 on MELK stood at 0.0065 µM; with A549 cells it was 0.85 µM; in the test on HT-1197 cells, 5.2 µM; with T47D cells, 0.11 µM; in the test on BT-549 cells, 0.22 µM.
With `O=C(c1cnc2ccc(-c3ccc(O)c(Cl)c3)cc2c1N[C@H]1CC[C@H](N2CCCC2)CC1)C1CC1` [Example 342, {6-(3-Chloro-4-hydroxyphenyl)-4-[trans-4-(pyrrolidin-1-yl)cyclohexylamino]quinolin-3-yl}(cyclopropyl)methanone], the IC50 at MELK was determined as 0.0046 µM; in the test with A549 cells, 0.27 µM; with HT-1197 cells, 1.8 µM; in the test with T47D cells it was 0.25 µM; in the test with BT-549 cells it was 0.68 µM.
`COc1cc(-c2cc3c(N[C@H]4CC[C@H](N)CC4)c(C(=O)C4CC4)cnc3cc2F)cc(Cl)c1O` [Example 284, {4-[trans-4-aminocyclohexylamino]-6-(3-chloro-4-hydroxy-5-methoxyphenyl)-7-fluoroquinolin-3-yl}(cyclopropyl)methanone]: the IC50 at MELK amounted to 0.013 µM; in the test on A549 cells it was 0.49 µM; in the test with HT-1197 cells, 2.2 µM; in the test with T47D cells, 0.62 µM; in the test with BT-549 cells, 1.7 µM.
For `O=C(c1cnc2ccc(-c3ccc(O)c(Cl)c3)cc2c1NCCN1CCNCC1)C1CC1` [Example 215, {6-(3-Chloro-4-hydroxyphenyl)-4-[2-(piperazin-1-yl)ethylamino]quinolin-3-yl}(cyclopropyl)methanone], the IC50 worked out at 0.017 µM at MELK; 1.2 µM in the test with A549 cells; 3.9 µM with HT-1197 cells; 0.92 µM with T47D cells; 1.5 µM in the test with BT-549 cells.
In the case of `N[C@H]1CC[C@H](Nc2c(C(=O)C3CC3)cnc3ccc(-c4cc(Cl)c(O)c(Cl)c4)cc23)CC1` [Example 157(a), {4-[trans-4-Aminocyclohexylamino]-6-(3,5-dichloro-4-hydroxyphenyl)quinolin-3-yl}(cyclopropyl)methanone], the IC50 at MELK turned out to be 0.0076 µM; with A549 cells, 0.57 µM; with HT-1197 cells, 3.7 µM; in the test with T47D cells, 0.15 µM; with BT-549 cells it was 0.33 µM.
Turning to `CC(C1CCN(c2c(S(C)(=O)=O)cnc3ccc(-c4ccc(O)c(Cl)c4)cc23)CC1)N(C)C` (stereo not shown) [Example 246, 2-Chloro-4-[4-{4-[1-(dimethylamino)ethyl]piperidin-1-yl}-3-(methylsulfonyl)quinolin-6-yl]phenol], the IC50 on MELK came to 0.01 µM; in the test on A549 cells, 0.35 µM; in the test on HT-1197 cells, 1.2 µM; in the test on T47D cells, 0.18 µM; with BT-549 cells, 0.72 µM.
